Data published in PubChem BioAssay (NCI).
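Grown in 96-well plates, cells were treated for 48 hours with each compound at five concentrations. Insufficient inhibition: endpoint recorded as highest concentration tested. GI50 is the concentration that inhibits growth by half. The concentration for full growth arrest is given as TGI.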

How the values were obtained:
Assay in all cases: inhibition of tumour cell growth, NCI panel, 48 h
HCT-116 colon = system: HCT-116 colon
NCI-H226 lung = system: NCI-H226 lung
HOP-92 NSCLC = system: HOP-92 NSCLC
TK-10 renal = system: TK-10 renal
RPMI-8226 leukemia = system: RPMI-8226 leukemia
M19-MEL melanoma = system: M19-MEL melanoma
SN12C renal = system: SN12C renal
A549 NSCLC = system: A549 NSCLC
KM12 colon = system: KM12 colon
NCI-H522 lung = system: NCI-H522 lung

SMILES | TGI (HCT-116 colon) [µM] | TGI (NCI-H226 lung) [µM] | TGI (HOP-92 NSCLC) [µM] | TGI (TK-10 renal) [µM] | TGI (RPMI-8226 leukemia) [µM] | TGI (M19-MEL melanoma) [µM] | TGI (SN12C renal) [µM] | TGI (A549 NSCLC) [µM] | TGI (KM12 colon) [µM] | GI50 (NCI-H226 lung) [µM] | GI50 (HOP-92 NSCLC) [µM] | GI50 (TK-10 renal) [µM] | GI50 (SN12C renal) [µM] | GI50 (A549 NSCLC) [µM] | GI50 (KM12 colon) [µM] | TGI (NCI-H522 lung) [µM] | GI50 (RPMI-8226 leukemia) [µM] | GI50 (HCT-116 colon) [µM] | GI50 (NCI-H522 lung) [µM]
CC(C)c1cccc(C(C)C)c1NC(=S)Nc1ccccc1 | > 100 | > 100 | > 100 | > 100 | > 100 | > 100 | > 100 | > 100 | > 100 |  |  |  |  |  |  |  |  |  | 
CCCCCCCCCCCCCCCc1ccc(C(=O)C[n+]2ccccc2)cc1 |  | > 100 | 3.93 | 2.72 |  |  | 2.13 | 2.03 | 1.59 | 4.15 | 0.295 | 1.12 | 0.756 | 0.731 | 0.523 |  |  |  | 
Nc1cccc2cc(S(=O)(=O)Nc3ccc(C(=O)O)cc3)ccc12 | > 100 | > 100 | > 100 | > 100 | > 100 |  | > 100 | > 100 | > 100 |  |  |  |  |  |  | > 100 |  |  | 
N=C(N)c1ccc(-c2ccc(-c3ccccc3)o2)cc1 |  | 27.7 | 4.14 | 3.73 | 7.29 |  | 7.61 | 6.24 | 3.58 | 7.93 | 1.95 | 1.89 | 2.72 | 2.51 | 1.86 |  | 2.75 |  | 
CCN(CC)CCSc1nc2c([N+](=O)[O-])cccc2[nH]1 |  | > 100 | > 100 | > 100 | > 100 | > 100 | > 100 | > 100 | > 100 |  |  |  |  |  |  | > 100 |  |  | 
COc1ccc(C2C(Cl)C(=O)N2NC(=O)c2ccc(NC(C)=O)cc2)cc1OC (centres undefined) | > 100 | > 100 | > 100 | > 100 | > 100 | > 100 |  | > 100 | > 100 |  |  |  |  |  |  | > 100 |  |  | 
O=C(Nc1ccc(-n2cc(-c3ccncc3)c(-c3ccc(O)c(Cl)c3)n2)cc1)c1ccc(Cl)c(Cl)c1 | > 32.5 | > 32.5 | 20.5 | > 32.5 | 1.44 |  | > 32.5 | > 32.5 | > 32.5 | > 32.5 | 0.819 | 1.52 | 2.95 | 2.87 | 1.63 | > 32.5 | 0.537 | 1.23 | 0.801
CSc1nc(NC2OC(CO)C(O)C(O)C2O)c(N)c(=O)n1C (centres undefined) | > 100 | > 100 | > 100 |  | > 100 | > 100 | > 100 | > 100 | > 100 |  |  |  |  |  |  | > 100 |  |  | 
CC(C)=CCC/C(C)=C/CC/C(C)=C/C(O)c1ccccc1 (centres undefined) | 32.2 | 46.2 |  | 88.4 | 49.5 | 34.6 | 33.9 |  | 51.8 |  |  |  |  |  |  | > 10 |  |  | 
NC(=O)OCc1c(O)c2c(c(O)c1COC(N)=O)C(=O)C=CC2=O | > 100 | > 100 | > 100 | > 100 | > 100 | 11.8 | > 100 | > 100 | > 100 |  |  |  |  |  |  | > 100 |  |  | 
CNC1=C(C)C(=O)C2=C(C1=O)C(COC(N)=O)C1(OC)C3NC3CN21 (centres undefined) | > 100 | 4.66 |  | 94.1 | 66.7 |  |  | > 100 | 2.04 |  |  |  |  |  |  | 2.22 |  |  | 
